Reference: PubChem BioAssay (NCI)
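In this assay, cells in 96-well plates receive the compound at five concentrations for 48 hours. Endpoints are linearly interpolated between the surrounding concentrations. TGI is the concentration that stops growth completely.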

Key:
Assay in all cases: NCI tumour cell line growth inhibition, 48 h
[1] = test system: DMS 114 small cell lung
[2] = test system: RXF-631 renal
[3] = test system: LXFL 529 NSCLC
[4] = test system: SNB-78 CNS
[5] = test system: KM20L2 colon
[6] = test system: DLD-1 colon
[7] = test system: HOP-18 NSCLC
[8] = test system: MDA-N
[9] = test system: XF 498 CNS

CC(=O)OC1CC2C(C)(C)C(=O)C=C[C@]2(C)C2CCC3(C)C(=CCC3[C@H](CO)C[C@H](O)C(=O)C(C)(C)O)[C@]12C (some centres not stated) was tested, and the TGI [1] was > 100 µM, the TGI [2] was > 100 µM and the TGI [3] was > 100 µM. The TGI [4] was > 100 µM, the TGI [5] was 28 µM and the TGI [6] was 30.3 µM. For the same compound, the TGI [7] was > 100 µM.

Work on COc1cc2cc(C(=O)N3C[C@H](CCl)c4c3cc(O)c3ccccc43)[nH]c2c(OC)c1OC yielded a TGI [8] of 2.13 µM.

COc1cccc(C2N3CCCCC3[C@@H]3c4[nH]c5ccccc5c4CCN23)c1OC (some centres not stated) gave a TGI [1] of 29.2 µM, a TGI [2] of 32.4 µM and a TGI [9] of 28.7 µM. For the same compound, the TGI [3] was 28.5 µM, the TGI [4] was 29.8 µM and the TGI [5] was 27.4 µM. It also gave a TGI [6] of 31.2 µM and a TGI [7] of 31.6 µM.

In the case of N#CC(N)(C(=O)C(=O)NCCCNC(=O)C(=O)C(N)(C#N)c1ccc(Cl)cc1)c1ccc(Cl)cc1 (configuration not stated), the TGI [1] is reported as > 100 µM, the TGI [2] is reported as > 100 µM and the TGI [9] is reported as > 100 µM. The TGI [3] was > 100 µM, the TGI [4] was > 100 µM and the TGI [5] was > 100 µM. For the same compound, the TGI [6] was > 100 µM and the TGI [7] was > 100 µM.

In the case of O=C(O)c1ccccc1/C=C1/Nc2ccccc2C1=O, the TGI [8] is reported as > 100 µM.

With O=[P+](O)c1cc2c3ccccc3ccc2c2ccccc12 the TGI [1] was > 100 µM, the TGI [9] was > 100 µM and the TGI [3] was > 100 µM. The TGI [4] was > 100 µM, the TGI [5] was > 100 µM and the TGI [6] was > 100 µM. The TGI [7] was > 100 µM.

With Nc1ccc(C(=O)N/C(=C\c2ccc3c(c2)OCO3)c2nc3ccc4c(c3[nH]2)C(=O)c2ccccc2C4=O)cc1 the TGI [1] was > 100 µM, the TGI [2] was > 100 µM and the TGI [9] was > 100 µM. The TGI [3] was > 100 µM, the TGI [4] was > 100 µM and the TGI [5] was > 100 µM. The TGI [6] was 45.2 µM.

In the case of CC(C)C(NCc1c2ccccc2nc2ccccc12)C(=O)O (configuration not stated), the TGI [1] is reported as 90.1 µM, the TGI [2] is reported as 97.3 µM and the TGI [9] is reported as 62.4 µM. The TGI [3] was > 100 µM, the TGI [5] was > 100 µM and the TGI [6] was > 100 µM.

COc1cc2ccc(C(=O)O)cc2cc1OC was tested, and the TGI [9] was > 100 µM, the TGI [3] was > 100 µM and the TGI [4] was > 100 µM. The TGI [5] was > 100 µM and the TGI [7] was > 100 µM.

With C/C(=C\COc1ccc2ccc(=O)oc2c1)CCC(=O)C(C)(C)O the TGI [8] was > 100 µM.

For NC(=O)COc1ccc(Br)cc1Br, the TGI [1] was > 100 µM, the TGI [3] was > 100 µM and the TGI [4] was > 100 µM. The TGI [5] was > 100 µM, the TGI [6] was > 100 µM and the TGI [7] was > 100 µM.
